In patent US20100227828A1, “NEW SYNERGISTIC PHYTOCHEMICAL COMPOSITION FOR THE TREATMENT OF OBESITY” (LAILA NUTRACEUTICALS, priority 2007, published 2010):

Tests used:
5-lipoxygenase = assay: 5-Lipoxygenase inhibitory activity, colorimetric method; type: biochemical
Experimental: The new dietary/pharmaceutical supplement compositions are screened for their 5-lipoxygenase inhibitory potential using colorimetric method. The assay mixture contained 50 mM phosphate buffer (pH 6.3), 5-lipoxygenase, various concentrations of test composition (5 μg, 10 μg, 20 μg) in dimethylsulphoxide and linolenic acid in a total volume of 0.5 mL, after 5 min incubation of above reaction mixture 0.5 mL ferric xylenol orange reagent is added and OD is measured after two minutes at 585 nm using spectrophotometer. Controls are run along with test in a similar manner except using vehicle instead of test substance solution. Percent inhibition is calculated by comparing absorbance of the test solution with that of control.

[1] = Protective effect against diet induced obesity in rats; type: in vivo, Sprague-Dawley rats; details: 7 mg/kg oral per day, 8 weeks with high fat diet
Experimental: Selected healthy Sprague-Dawley rats were randomly assigned to control or various treatment groups (n=6). All the animals allocated for protective phase of the study were on dietary intervention by feeding high fat diet ad libitum and the animals allocated to treatment groups were simultaneously given oral administration of 250 mg/kg of composition-1 or 7 mg/kg sibutramine per day in […] of 0.5% CMC, using gastric tube for the entire 8 week study duration. The test animals of the control group were simultaneously given 10 ml/kg of 0.5% CMC. Food and water consumption were recorded daily, body weights were recorded weekly and fasting blood samples were collected before initiation, after 4th week and 8th week (termination) of the study.

| Structure (SMILES) | % of inhibition (5-Lipoxygenase) (5-lipoxygenase; 5 μg) | % of inhibition (5-Lipoxygenase) (5-lipoxygenase; 10 μg) | reduction in weight gain [1] |
| --- | --- | --- | --- |
| C[C@H](Cc1ccc(O)c(O)c1)[C@@H](C)Cc1ccc(O)c(O)c1 [NDGA, Nordihydroguiaretic acid] | 50.2% | 77.35% |  |
| CC(C)CC(N(C)C)C1(c2ccc(Cl)cc2)CCC1 (stereo not drawn) [sibutramine] |  |  | 28.2% |
